Source: US20120328696A1, “ANTI-PARKINSONIAN COMPOUND ACETYLSALICYLIC ACID MALTOL ESTER” (Hutecs Korea Pharmaceutical Co., Ltd., priority 2008, published 2012)

Assays:
Format in all cases: in vivo
[1] = system: GPx-1 (+/+)- and GPx-1 (−/−)-mice; assay: Rota-rod test after MA; settings: MA 8 mg/kg i.p. x4, GPx-1 (+/+) and (−/−) mice
Description: (§1) The mice received four times of MA (8 mg/kg, ip) or saline as a 2 hr-time interval. Chemicals (AME, EBS, and PKC inhibitors) were administrated for 5 consecutive days (twice daily), and were given 2 times at 4 hr and 30 min before the first MA injection as shown in the experimental schedule. Animals were sacrificed at 4 hrs and 3 days after the final MA administration.
The apparatus (Ugo Basile model 7650, Comerio, VA, Italy) consisted of a base platform and a rotating rod with a nonslippery surface. The rod was placed at a height of 15 cm from the base. The rod, 30 cm in length, was divided into 5 equal sections by 6 opaque disks (so that the subjects cannot be distracted by one another) To assess motor performance, the mice first trained on the apparatus 2 minutes at a constant rate of 4 r.p.m. per 30 s prior to the test. The test was performed 30 minutes after training and an accelerating paradigm was applied, starting from a rate of 4 r.p.m. to a maximum speed of 40 r.p.m., then the rotation speed was kept constant at 40 r.p.m. for a maximum of 300 s. The duration for which the animal could maintain balance on the rotating drum was measured as the rotarod latency, with a maximal cut-off time of 300 s.

[2] = system: F4/80 (a marker of microgliosis); assay: F4/80 expression after MA (western blot); settings: p.o.; AME 50, EBS 20, rottlerin 20 mg/kg; MA 8 mg/kg i.p. x4; GPx-1 (+/+) and (−/−) mice
Description: as §1
(§2) The western blot assays was performed as described previously (Kim et al., 2003). Tissues were homogenized in lysis buffer, containing 200 mM Tris HCl (pH 6.8), 1% SDS, 5 mM EGTA (ethylene glycol tetraacetic acid), 5 mM EDTA (ethylenediaminetetraacetic acid), 10% glycerol, 1× phosphatase inhibitor cocktail I, 1× protease inhibitor cocktail. Lysate was centrifuged at 12,000×g for 30 min and supernatant fraction was used for Western blot analysis. Proteins (20-50 ug/lane) were separated by 6%, 8%, 10% or 15% sodium dodecyl sulfate-polyacrylamide gel electrophoresis and transferred onto the PVDF membranes. Following transfer, the membranes were preincubated with 5% non-fat milk and incubated overnight at 4° C. with primary antibody against β-actin (1:50000, Sigma, St. Louis, Mo., USA), TH (1:5000, Chemicon), TH phosphor-Ser 19 (1:1000, Chemicon,), TH phosphor-Ser 31 (1:500, Chemicon), TH phosphor-Ser 40 (1:500, Chemicon), F4/80 (1:500, Serotec), GPx1 (1:2500, AbFrontier), PKC (1:5000, Santa Cruz biotechnology, Santa Cruz, Calif., USA), p53 (1:5000, Cell signaling, Beverly, Mass., USA), MDM2 (1:1000, BD Pharmingen, San Jose, Calif., USA), MDM2 phospho-Ser 166 (1:1000, cell signaling), BDNF (1:500, Chemicon), GDNF (1:250, Santa Cruz), COX-2 (1:2000, Cayman, Ann Arbor, MC, USA), IL-6 (1:2000, Abcam, Cambridge, Mass., USA), TNF-a (1:1000, R&D Systems, Mckinley place NE, NM, USA), IFN-γ (1:500, Chemicon) or Iba-1 (1:500, Wako, Osaka, Japan). And then, membranes were incubated with HRP-conjugated secondary anti-rabbit IgG (1:1000, GE healthcare, Piscataway, N.J., USA), anti-mouse IgG (1:1000, Sigma) or anti-goat IgG (1:1000, Sigma) for 2 h. […]

[3] = system: reactive oxygen species (ROS); assay: Striatal ROS formation after MA; settings: striatum, 3 days after final MA; p.o.; AME 50, EBS 20, rottlerin 20 mg/kg; GPx-1 (+/+) and (−/−) mice
Description: as §1
The extent of reactive oxygen species (ROS) formation in the striatum was assessed by measuring the convertion from 2′,7′-dichlorofluorescin diacetate (DCFH-DA) to dichlorofluoresin (DCF) as describe by Bourre et al., (2002) with slight modification. Brain homogenates were added to a tube containing 2 ml of PBS with 10 nmole of DCFH-DA, dissolved in methanol. Mixture were incubated at 37° C. for 3 hours and then measured the absorbance at 480 nm excitation and 525 nm emission. DCF is used as a standard.

interleukin (IL)-6 = assay: IL-6 expression after MA (western blot); settings: p.o.; AME 50, EBS 20, rottlerin 20 mg/kg; MA 8 mg/kg i.p. x4; GPx-1 (+/+) and (−/−) mice
Description: as §1, §2

TH phospho-ser 40 = assay: Striatal phospho-TH-ser 40 after MA (western blot); settings: p.o.; AME 50, EBS 20, rottlerin 20 mg/kg; MA 8 mg/kg i.p. x4; GPx-1 (+/+) and (−/−) mice
Description: as §1, §2

[4] = system: glutathione peroxidase (GPx)-1; assay: Striatal GPx-1-like immunoreactivity after MA; settings: p.o.; AME 50, EBS 20, rottlerin 20 mg/kg; MA 8 mg/kg i.p. x4; GPx-1 (+/+) mice
Description: as §1
Animals were sacrificed at 4 hours and 3 days after the last MA injection. They were anesthetized with 60% urethane and perfused transcardially with 50 ml of 50 mM phosphate buffered saline (PBS), followed by 50 ml of a mixture of 4% paraformaldehyde in PBS. The rate of perfusion was 50 ml/min. The brains were removed, post-fixed at 4° C. for 24 h in the same fixative and then cryoprotected in 30% sucrose in PBS. The brains were cut on a horizontal sliding microstome into 40 μm transverse free-floading sections (Kim et al., 1999).
The immunocytochemistry was performed as described previously (Kim et al., 2000a, b). Briefly, prior to incubation with the primary antibodies, sections were preincubated with 0.3% hydrogen peroxide in PBS for 30 min (to block endogenous peroxidase activity), then in PBS containing 0.4% Triton X-100 for 20 min and 1% normal serum for 20 min. The sections were then incubated for 48 h at 4° C. in primary antibody against tyrosine hydroxylase (1:500, Chemicon, Termecula, Calif., USA), GPx1 (1:500, AbFrontier, Seoul, Korea), PKC (1:200, Santa Cruz biotechnology INC, CA, USA) or F4/80 (1:50, Serotec, Raleigh, N.C., USA). The sections were further incubated with secondary biotinylated antisera (1:1000 dilution; Vector, Brulingame, Calif.) for 1 hr, and immersed in avidin-biotin-peroxidase complex (ABC Elite kit, Vector) for 1 hr. Sections were always washed three times with PBS (pH 7.4) between each incubation step. 3,3′-diaminobenzidine (DAB) was used as a chromogen.
The western blot assays was performed as described previously (Kim et al., 2003). […]

[5] = p.o., AME 25 or 50, EBS 10 or 20, rottlerin 10 or 20 mg/kg

Compound	effect on MA-induced impairment in rota-rod performance [1, 5]	effect on MA-induced increase in F4/80 expression [2]	effect on MA-induced increase in ROS [3]	effect on MA-induced increase in IL-6 expression (interleukin (IL)-6)	effect on MA-induced decrease in phospho-TH-ser 40 (TH phospho-ser 40)	effect on MA-induced decrease in striatal GPx-1-IR [4]	effect on MA-induced impairment in rota-rod performance ([1]; PKC inhibitors intra-striatal (chelerythrine 0.2 ug/head, rottlerin 3.0 ug/head significant))
CC(=O)Oc1ccccc1C(=O)Oc1c(C)occc1=O [AME, 3-(2-methyl-4-pyronyl)-2-acetyloxybenzoate]	inhibited these effects in a dose-dependent manner	significantly and consistently attenuating effects	significantly attenuated	significantly and consistently attenuating effects	significantly blocked	inhibited MA-induced decrease in the GPx-1-IR	
O=c1c2ccccc2[se]n1-c1ccccc1 [EBS, 2-phenyl-1,2-benzisoselenazol-3(2H)-one]	inhibited these effects in a dose-dependent manner	significantly and consistently attenuating effects	significantly attenuated	significantly and consistently attenuating effects	significantly blocked	inhibited MA-induced decrease in the GPx-1-IR	
CC(=O)c1c(O)c(C)c(O)c(Cc2c(O)c3c(c(C(=O)/C=C/c4ccccc4)c2O)OC(C)(C)C=C3)c1O [rottlerin]	inhibited these effects in a dose-dependent manner	significantly and consistently attenuating effects	significantly attenuated	significantly and consistently attenuating effects	significantly blocked	inhibited MA-induced decrease in the GPx-1-IR	attenuated the MA-behavioral impairments in a dose-dependent manner
